Measured values from patent US20230272390A1, “COMPOSITIONS AND METHODS FOR HEMOGLOBIN PRODUCTION” (THE CHILDREN'S HOSPITAL OF PHILADELPHIA, priority 2020, published 2023).

Columns and labels:
[1] = system: ZNF410; assay: RNA-seq in ZNF410 depleted differentiated HUDEP-2 cells; format: cell-based, human; conditions: vs non-targeting sgRNA
Procedure: HUDEP-2 cells were cultured and differentiated as described (Kurita, et al. (2013) PLoS One 8:e59890). Briefly, StemSpan™ Serum-Free Expansion Medium (SFEM) supplemented with 50 ng/ml human stem cell factor (SCF), 10 μM dexamethasone, 1 μg/ml doxycycline, 3 IU/ml erythropoietin and 1% penicillin/streptomycin was utilized for routine cell maintenance. Cell density was kept at 0.1-1×10^6/ml. HUDEP-2 cells were differentiated for 6-7 days in IMDM supplemented with 50 ng/ml human SCF, 3 IU/ml erythropoietin, 2.5% fetal bovine serum, 250 μg/ml holo-transferrin, 10 ng/ml heparin, 10 μg/ml insulin, 1 μg/ml doxycycline and 1% penicillin/streptomycin.
Lentivirus was produced as described (Grevet, et al. (2018) Science 361:285-290). Briefly, 10-20 μg of expression vectors, 5-10 μg of pVSVG (pMD2.G) and 7.5-15 μg of psPAX2 package plasmids, and 80 μl of 1 mg/ml polyethylenimine (PEI) were mixed, incubated for 15-20 minutes, and added to HEK293T cells grown in 10 cm plates to above 90% confluence. Media were replaced 6-8 hours post transfection, virus was collected 24 hours and 48 hours post-transfection and pooled. For infection, virus-containing supernatant was mixed with the indicated cell lines with 8 μg/ml polybrene and 10 mM HEPES, and then spun at 2250 rpm for 1.5 hours at room temperature. Infected HUDEP-2 cells were selected for mCherry+ or GFP+ cell sorting at 48 hours post-infection.
(§1) Total RNAs were purified as described above. Sequencing libraries were then constructed using 100 ng of purified total RNA using the ScriptSeg™ Complete Kit (Illumina cat #BHMR1224) according to manufacturer's protocol. RNA was subjected to rRNA depletion using the Ribo-Zero™ removal reagents and fragmented. First strand cDNA was synthesized using a 5′ tagged random hexamer, and reversely transcribed, followed by annealing of a 5′ tagged, 3′-end blocked terminal-tagged oligo for second strand synthesis. The Di-tagged cDNA fragments were purified, barcoded, and PCR-amplified for 15 cycles.
(§2) The size and quality of each library were evaluated by Bioanalyzer 2100 (Agilent Technologies, Santa Clara, Calif.), and quantified using qPCR. Libraries were sequenced in paired-end mode on a NextSeq 500 instrument to generate 2×76 bp reads using Illumina-supplied kits. The sequence reads were processed using the ENCODE3 long RNA-seq pipeline (encodeproject.org/pipelines/ENCPL002LPE/). In brief, reads were mapped to the human genome (hg38 assembly) using STAR, followed by RSEM for gene quantifications.
(§3) The normalized FPKM (fragments per kilo base per million mapped reads) for each gene was averaged in 2 replicates and then filtered to keep those with average FPKM at least 10 in both HUDEP-2 cells and primary erythroblasts, resulting in ˜5000 high abundant genes each cell type for further analysis. Log2 fold-change was calculated from FPKM of sgRNA targeting ZNF410 compared to control sgRNA (non-targeting sgRNA) using the DESeq2 method, and top changed genes were selected with fold-change at least 1.5 and p-value<0.05. Commonly changed genes in both independent sgRNAs were considered to be significant. Scatter plots were generated using ggplot2 in RStudio for all expressed genes (FPKM>5).
(§4) ZNF410 functions as a transcriptional activator (Benanti, et al. (2002) Mol. Cell Biol., 22:7385-7397). To understand how ZNF410 regulates the transcription of γ-globin genes, RNA-seq experiments were performed in ZNF410 depleted differentiated HUDEP-2 cells and primary human erythroblasts.

[2] = system: ZNF410; assay: RNA-seq in ZNF410 depleted primary human erythroblasts (CD34+ HSPC derived); format: cell-based; conditions: primary CD34+ cells (erythroblasts), vs non-targeting sgRNA
Procedure: Primary human CD34+ HSPCs from mobilized peripheral blood were purchased from the Fred Hutchinson Cancer Research Center. Human CD34+ HSPCs were differentiated using a three-phase culture system as described (Grevet, et al. (2018) Science 361:285-290). Briefly, IMDM supplemented with 3 IU/ml erythropoietin, 2.5% human male AB serum, 10 ng/ml heparin, and 10 μg/ml insulin was used as base medium. For phase I medium, 100 ng/ml human SCF, 5 ng/ml IL-3, and 250 μg/ml holo-transferrin were supplemented. For phase II medium, 100 ng/ml human SCF and 250 μg/ml holo-transferrin were added. For phase III medium, 1.25 mg/ml holo-transferrin was supplemented.
Commercial sgRNAs were purchased from IDT (Coralville, Iowa) or Synthego (Menlo Park, Calif.). To assemble the RNP complexes, 100 pmol sgRNA and 50 pmol SpCas9 protein (from IDT) were incubated at room temperature for 15 minutes. CD34+ HSPCs (50k-100k) at Day 3-4 of phase I culture were electroporated using P3 Primary Cell 4D Nucleofector™ X Kit (from Lonza) with the program DZ100 (Bak, et al. (2018) Nat. Protoc., 13:358-376).
as §1, §2, §3, §4

Row | Substance | log2(sgRNA/NT) AC092490.1 transcript [1] | log2(sgRNA/NT) AC104389.5 transcript [1] | log2(sgRNA/NT) AK1 transcript [1] | log2(sgRNA/NT) CD63 transcript [1] | log2(sgRNA/NT) CHD4 transcript [1] | log2(sgRNA/NT) CKB transcript [1] | log2(sgRNA/NT) FOS transcript [1] | log2(sgRNA/NT) H1F0 transcript [1] | log2(sgRNA/NT) HBG1/2 transcript [1] | log2(sgRNA/NT) PRG2 transcript [1] | log2(sgRNA/NT) S100A10 transcript [1] | log2(sgRNA/NT) SCARNA3 transcript [1] | log2(sgRNA/NT) TUBA1A transcript [1] | log2(sgRNA/NT) AC092490.1 transcript [2] | log2(sgRNA/NT) ACSL6 transcript [2] | log2(sgRNA/NT) CBX6 transcript [2] | log2(sgRNA/NT) CHD4 transcript [2] | log2(sgRNA/NT) HBG1/2 transcript [2] | log2(sgRNA/NT) HSPB1 transcript [2] | log2(sgRNA/NT) PAFAH1B3 transcript [2] | further results
1 | ZNF410 sgRNA#2: sgRNA targeting the DNA-binding domain of ZNF410, CTCATCAGTGCCAAGTCTGT (SEQ ID NO: 5) (listed as DNA, chemistry not given here) | −1.50 | 4.01 | 1.83 | 1.75 | −1.23 | 2.24 | −1.88 | 2.13 | 4.28 | 2.17 | −1.59 | −1.30 | −1.07 | −1.47 | −1.47 | −2.01 | −1.08 | 1.75 | 2.15 | 1.40 | log2(sgRNA/NT) PLA2G6 transcript [1]: −1.01; log2(sgRNA/NT) RNU5B-1 transcript [1]: 3.60; log2(sgRNA/NT) RNU5E-1 transcript [1]: 1.82; log2(sgRNA/NT) RNU6-11P transcript [1]: −1.11; log2(sgRNA/NT) SCARNA18 transcript [1]: −1.20; log2(sgRNA/NT) SLC2A3P1 transcript [1]: −1.49; log2(sgRNA/NT) SNORD97 transcript [1]: 2.29; log2(sgRNA/NT) AC104389.5 transcript [2]: 1.43; log2(sgRNA/NT) AC130456.3 transcript [2]: −2.03; log2(sgRNA/NT) CDKN1A transcript [2]: 1.38; log2(sgRNA/NT) IFI27 transcript [2]: 1.78; log2(sgRNA/NT) KDM7A transcript [2]: −1.32; log2(sgRNA/NT) PKN1 transcript [2]: 1.43; log2(sgRNA/NT) PRDX5 transcript [2]: −1.09; log2(sgRNA/NT) RN7SL471P transcript [2]: 1.60; log2(sgRNA/NT) SELENOW transcript [2]: 1.67; log2(sgRNA/NT) SMOX transcript [2]: −1.24; log2(sgRNA/NT) STUB1 transcript [2]: 1.40; log2(sgRNA/NT) TMCC2 transcript [2]: −1.69; log2(sgRNA/NT) ZNF410 transcript [2]: −1.24
2 | ZNF410 sgRNA#1: sgRNA targeting the DNA-binding domain of ZNF410, GAACCACCAGATGTTTTCGG (SEQ ID NO: 4) (listed as DNA, chemistry not given here) | −1.45 | 3.95 | 1.99 | 1.90 | −0.99 | 2.44 | −1.32 | 2.41 | 4.26 | 2.09 | −1.60 | −0.89 | −1.06 | −1.50 | −1.67 | −1.56 | −0.93 | 1.47 | 2.01 | 1.35 | log2(sgRNA/NT) ATF5 transcript [1]: 1.65; log2(sgRNA/NT) GLIPR2 transcript [1]: −1.14; log2(sgRNA/NT) MIF transcript [1]: 1.92; log2(sgRNA/NT) PPP4R1 transcript [1]: −0.95; log2(sgRNA/NT) RF00019 transcript [1]: −2.43; log2(sgRNA/NT) TMCC2 transcript [1]: −1.18; log2(sgRNA/NT) TMSB10 transcript [1]: 1.79; log2(sgRNA/NT) COA4 transcript [2]: 1.30; log2(sgRNA/NT) DYNLT1 transcript [2]: 1.27; log2(sgRNA/NT) GPCPD1 transcript [2]: −0.93; log2(sgRNA/NT) ISOC2 transcript [2]: 1.34; log2(sgRNA/NT) PKN1 transcript [2]: 1.32; log2(sgRNA/NT) PRDX5 transcript [2]: −1.00; log2(sgRNA/NT) RPS19BP1 transcript [2]: 1.42; log2(sgRNA/NT) SELENOW transcript [2]: 1.55; log2(sgRNA/NT) SMOX transcript [2]: −1.45; log2(sgRNA/NT) SPC25 transcript [2]: −0.93; log2(sgRNA/NT) STUB1 transcript [2]: 1.46; log2(sgRNA/NT) TMCC2 transcript [2]: −2.01; log2(sgRNA/NT) ZNF410 transcript [2]: −1.49
